Measurements from patent US20250082665A1, “EYE DROP FORMULATIONS IN THE FORM OF AN AQUEOUS SOLUTION COMPRISING 8-OXO-2'-DEOXYGUANOSINE OR A PHARMACEUTICALLY ACCEPTABLE SALT THEREOF” (RUDACURE CORPORATION, priority 2023, published 2025).

Tests used:
corneal injuries = conditions: cited from earlier work
[1] = water solubility / solubilization of the compound of Formula 1; format: physicochemical

behaviour of aqueous solution obtained by heating when stored at room temperature ([1]; solubilized by heating, stored at room temperature): precipitates
solubility ([1]; water, room temperature (about 25° C.)): 1910 µg/mL
SMILES: Nc1nc2c(nc(O)n2[C@H]2C[C@H](O)[C@@H](CO)O2)c(=O)[nH]1 [compound of Formula 1, 8-oxo-2′-deoxyguanosine]
corneal epithelial restoration (corneal injuries): rapid corneal epithelial restoration
